Reference: PMC12670405, “Second-Generation AURKA-Targeting PROTACs: Structural Optimization toward in Vivo Degradation in Neuroblastoma” (Journal of Medicinal Chemistry, 2025)
Where two headings read alike, the source gives them in different places. Blank lines part the entries; values can stand above or below the molecule they belong to.

Experiments:
IMR-32 = assay: IncuCyte live-cell imaging, antiproliferative effect; format: cell-based; conditions: Homo sapiens, IMR-32, 72 h, read-out: Cell GI50 72h, IMR-32
Procedure, shortened: (§1)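 Cells seeded in 384-well plates (neuroblastoma 1200–5000, HEK293T 600 cells/well), adhered overnight, then compound-treated in duplicate or triplicate; confluency tracked by IncuCyte live-cell imaging. Normalized confluence averaged from 3 experiments; absolute GI50 interpolated from four-parameter variable-slope curves.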

AURKA = biological target: T1, AURKA (Homo sapiens, UniProt O14965); assay: AURKA protein levels, Western blot in SH-SY5Y with ABCB1 knockdown; format: cell-based; set-up: endogenous in cells; conditions: 1 μM, 24h
T1 sequence (O14965 1-403): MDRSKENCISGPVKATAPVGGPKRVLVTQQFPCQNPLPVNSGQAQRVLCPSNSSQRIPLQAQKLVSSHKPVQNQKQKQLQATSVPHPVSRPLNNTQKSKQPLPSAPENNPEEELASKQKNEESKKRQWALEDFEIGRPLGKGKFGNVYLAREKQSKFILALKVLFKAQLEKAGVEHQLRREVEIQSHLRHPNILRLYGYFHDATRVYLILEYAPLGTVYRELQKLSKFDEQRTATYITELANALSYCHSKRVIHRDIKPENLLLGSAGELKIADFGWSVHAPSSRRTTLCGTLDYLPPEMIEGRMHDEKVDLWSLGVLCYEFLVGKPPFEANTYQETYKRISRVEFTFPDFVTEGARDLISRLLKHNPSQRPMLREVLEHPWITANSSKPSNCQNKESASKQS

SJNB-1 = assay: IncuCyte live-cell imaging, antiproliferative effect; format: cell-based; conditions: Homo sapiens, 72 h, read-out: Cell GI50 72h
Description: The use of human cell lines in this study was approved by the Ethics Committee of Ghent University Hospital (EC/029-2022/sds). Human neuroblastoma cell lines NGP, IMR-32, SJNB-8, SK-N-BE(2)-C, SJNB-1, SK-N-SH and SK-N-AS, as well as benign immortalized cell lines RPE and HEK293T were either bought commercially or obtained through research laboratories. The neuroblastoma cell lines and HEK293T were cultured in RPMI 1640 medium (Gibco, #52400041) supplemented with 10% fetal bovine serum (Sigma-Aldrich, #F0804), 2 mM L-glutamine (Gibco, #11548876), and 100 IU/mL penicillin/streptomycin (Gibco, #11548876). RPE cells were cultured in DMEM-F12 (Gibco, #11594426), supplemented with 10% fetal bovine serum, 2 mM L-glutamine and 100 IU/mL penicillin/streptomycin. Screening for mycoplasma contamination occurred routinely on the cells. […]
Neuroblastoma cells were seeded in 384-well plates at different densities ranging from 1200 to 5000 cells/well and allowed to adhere overnight. […] Compound treatment was performed using the D300e Digital Dispenser (Tecan) in duplicate or triplicate and cell confluency was monitored over time using the IncuCyte Live-cell imaging system (Sartorius). […] Mean normalized confluences were calculated from 3 individual experiments. […]

CDK3 = biological target: T2, CDK3 (Homo sapiens, UniProt Q00526); assay: KINOMEscan scanMAX; format: binding; conditions: read-out: Percent Control
T2 construct: purchased Eurofins Discovery (DiscoverX KINOMEscan scanMAX)
T2 sequence (Q00526 whole entry): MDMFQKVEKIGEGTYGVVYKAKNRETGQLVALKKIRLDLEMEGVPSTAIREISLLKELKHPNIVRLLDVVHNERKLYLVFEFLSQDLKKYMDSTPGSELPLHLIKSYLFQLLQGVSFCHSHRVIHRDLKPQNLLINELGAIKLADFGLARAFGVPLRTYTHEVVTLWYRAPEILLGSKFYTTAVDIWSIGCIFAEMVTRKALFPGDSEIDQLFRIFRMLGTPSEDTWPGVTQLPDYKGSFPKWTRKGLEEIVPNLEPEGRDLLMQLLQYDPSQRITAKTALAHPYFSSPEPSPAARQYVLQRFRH
Description: (§2) The kinome-wide binding assay was performed by Eurofins Discovery using the scanMAX screening platform. More information can be found on the Eurofins Discovery Web site.

MYO3B = biological target: T3, MYO3B (Homo sapiens, UniProt Q8WXR4); assay: KINOMEscan scanMAX; format: binding; conditions: read-out: Percent Control
T3 construct: purchased Eurofins Discovery (DiscoverX KINOMEscan scanMAX)
T3 sequence (Q8WXR4 whole entry): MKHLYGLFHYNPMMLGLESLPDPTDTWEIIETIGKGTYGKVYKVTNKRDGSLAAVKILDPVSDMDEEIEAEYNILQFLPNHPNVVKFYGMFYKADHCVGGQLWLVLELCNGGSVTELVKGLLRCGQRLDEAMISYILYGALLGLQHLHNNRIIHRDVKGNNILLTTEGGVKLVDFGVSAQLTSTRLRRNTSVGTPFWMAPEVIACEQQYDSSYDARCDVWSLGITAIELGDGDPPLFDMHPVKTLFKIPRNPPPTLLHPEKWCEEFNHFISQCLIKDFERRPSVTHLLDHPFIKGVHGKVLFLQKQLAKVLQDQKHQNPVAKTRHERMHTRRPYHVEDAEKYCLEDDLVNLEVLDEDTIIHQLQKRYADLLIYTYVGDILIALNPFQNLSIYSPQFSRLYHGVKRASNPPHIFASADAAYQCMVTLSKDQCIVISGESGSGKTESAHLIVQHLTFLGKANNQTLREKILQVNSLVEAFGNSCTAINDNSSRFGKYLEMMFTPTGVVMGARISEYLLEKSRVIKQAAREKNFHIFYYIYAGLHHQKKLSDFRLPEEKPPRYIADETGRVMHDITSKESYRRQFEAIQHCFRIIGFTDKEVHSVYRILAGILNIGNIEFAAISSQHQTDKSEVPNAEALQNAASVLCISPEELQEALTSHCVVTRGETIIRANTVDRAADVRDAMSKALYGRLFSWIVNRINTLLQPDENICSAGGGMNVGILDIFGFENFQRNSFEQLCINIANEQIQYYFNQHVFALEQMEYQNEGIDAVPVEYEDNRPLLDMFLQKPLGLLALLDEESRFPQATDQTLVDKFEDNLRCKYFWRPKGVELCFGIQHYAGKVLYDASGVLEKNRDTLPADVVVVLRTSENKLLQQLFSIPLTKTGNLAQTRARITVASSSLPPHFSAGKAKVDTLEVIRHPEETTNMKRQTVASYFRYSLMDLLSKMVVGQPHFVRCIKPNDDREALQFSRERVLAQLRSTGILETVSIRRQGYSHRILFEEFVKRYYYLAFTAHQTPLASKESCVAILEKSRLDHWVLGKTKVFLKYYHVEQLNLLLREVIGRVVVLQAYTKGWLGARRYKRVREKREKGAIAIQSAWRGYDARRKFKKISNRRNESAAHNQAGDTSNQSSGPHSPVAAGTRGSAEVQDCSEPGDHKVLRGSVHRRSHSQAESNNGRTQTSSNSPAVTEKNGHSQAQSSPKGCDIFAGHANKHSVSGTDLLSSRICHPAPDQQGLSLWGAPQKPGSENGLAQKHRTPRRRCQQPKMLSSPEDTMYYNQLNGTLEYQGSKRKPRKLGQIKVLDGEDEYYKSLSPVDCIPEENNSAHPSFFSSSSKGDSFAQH
Description: as §2

BMPR1A = biological target: T4, BMPR1A (Homo sapiens, UniProt P36894); assay: KINOMEscan scanMAX; format: binding; conditions: read-out: Percent Control
T4 construct: purchased Eurofins Discovery (DiscoverX KINOMEscan scanMAX)
T4 sequence (P36894 24-532): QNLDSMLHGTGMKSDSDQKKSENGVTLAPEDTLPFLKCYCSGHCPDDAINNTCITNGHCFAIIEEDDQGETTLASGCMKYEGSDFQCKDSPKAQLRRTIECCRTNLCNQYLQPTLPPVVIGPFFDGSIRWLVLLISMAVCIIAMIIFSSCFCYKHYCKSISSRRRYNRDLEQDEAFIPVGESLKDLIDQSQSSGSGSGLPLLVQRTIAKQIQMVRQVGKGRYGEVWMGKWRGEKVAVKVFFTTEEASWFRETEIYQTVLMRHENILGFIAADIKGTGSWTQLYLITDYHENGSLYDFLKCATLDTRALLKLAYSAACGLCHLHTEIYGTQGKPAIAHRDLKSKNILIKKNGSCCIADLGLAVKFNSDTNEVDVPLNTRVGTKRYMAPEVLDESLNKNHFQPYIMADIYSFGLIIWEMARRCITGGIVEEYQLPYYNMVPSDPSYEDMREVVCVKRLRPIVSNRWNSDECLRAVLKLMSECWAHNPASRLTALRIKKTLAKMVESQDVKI
Description: as §2

HEK293T = assay: IncuCyte live-cell imaging, antiproliferative effect; format: cell-based; conditions: Homo sapiens, HEK-293T
Procedure, shortened: as §1

AURKA degradation, ABCB1 knockdown compared to wild-type (in words) (AURKA): stronger AURKA degradation
Structure (SMILES): O=C1CCC(N2C(=O)c3cccc(OCCOCCOCCOCCNC(=O)[C@]4(Cc5cccc(Nc6nccs6)n5)CC[C@@H](Oc5cccc(Cl)c5F)CC4)c3C2=O)C(=O)N1 (stereo partly drawn) [SK2188, reference compound]
GI50 (IMR-32): 10 nM

Structure (SMILES): Cc1cc(Nc2ccc(F)c(CC3(C(=O)N4CCC(CN5CCN(c6ccc(N7CCC(=O)NC7=O)cn6)CC5)CC4)CCN(Cc4cccc(Cl)c4F)CC3)n2)n[nH]1 [SK4454]
GI50 (SJNB-1): 13400 nM

Structure (SMILES): Cc1cc(Nc2ccc(F)c(CC3(C(=O)N4CCC(F)(CN5CCN(c6ccc(N7CCC(=O)NC7=O)cn6)CC5)CC4)CCN(Cc4cccc(Cl)c4F)CC3)n2)n[nH]1 [SK5527]
remaining binding at 0.1 µM (CDK3; 100 nM): 83% | remaining binding at 1 µM (CDK3; 1000 nM): 87% | remaining binding at 0.1 µM (MYO3B; 100 nM): 100% | remaining binding at 1 µM (MYO3B; 1000 nM): 100% | remaining binding at 0.1 µM (BMPR1A; 100 nM): 100% | remaining binding at 1 µM (BMPR1A; 1000 nM): 100% | GI50 (SJNB-1): 8640 nM | GI50 (HEK293T; 72 h, read-out: Cell GI50 72h): 408 nM | GI50 (HEK293T; 72h, read-out: GI50): ~500 nM
